Measurements: PubChem BioAssay AID463237 (Sanford-Burnham Center for Chemical Genomics, 2010)
Values after ≈ are worked out from the molar mass of the structure shown.

Test system: aqueous solubility, 1x PBS pH 7.4, UV, 18 h
Assay: aqueous solubility in phosphate buffer, ADME assay, biophysical, 1x PBS (AID 463237)
Settings: at 100 µM; active compounds read high

CCCCn1c(NC(=O)c2ccc(F)cc2)c(C#N)c2nc3ccccc3nc21
solubility: 14 µg/mL (≈ 36.1 µM)
